Two molecules from ChEMBL document CHEMBL1129878, “Synthesis of 5-epiaragusterol A” (Bioorg Med Chem Lett, 1997) can be followed below.

In one assay the test system is KB. In words: The compound was tested for the inhibitory activity against the proliferation of KB cells. In kind it is functional, cell-based. The following applies: Homo sapiens.
Another assay has as its system L1210. In words: The compound was tested in vivo for the potent antitumor activity toward L1210 leukemia in mice at the dose of 1.6 (mg/kg). Type of assay: functional, Mus musculus.

In brackets after ≈: the same amount, converted by molar mass.

Broadly, the IC50 is the point on the concentration scale where inhibition reaches its midpoint. The molecule `C[C@@H]1C[C@H]1[C@H](C)C[C@@H](O)[C@@]1([C@H]2CC[C@H]3[C@@H]4CC[C@@H]5CC(=O)CC[C@]5(C)[C@H]4C[C@@H](O)[C@]23C)CO1` [5-EPIARAGUSTEROL A] returned an IC50 in the assay on KB of 0.041 µg/mL (≈ 0.0894 µM).

A word on the T/C: it is the ratio of treated to control. As for `C[C@@H]1C[C@H]1[C@H](C)C[C@@H](O)[C@@]1([C@H]2CC[C@H]3[C@@H]4CC[C@H]5CC(=O)CC[C@]5(C)[C@H]4C[C@@H](O)[C@]23C)CO1` [ARAGUSTEROL A], the midpoint of inhibition in the assay with KB, the IC50, lay at 0.042 µg/mL (≈ 0.0916 µM). In the assay with L1210, this molecule yielded a T/C of 220%.
